Reference: patent US20210253635A1, “PEPTIDIC PROTEIN KINASE C INHIBITORS AND USES THEREOF” (UNIVERSITE DE GENEVE, priority 2018, published 2021)
Ends that are not written are not given here. * marks the point of attachment. Myristoyl = CCCCCCCCCCCCCC(=O)*

Key:
[1] = tested on: nasal epithelial monolayers (Mucilair human primary nasal epithelial cells); experiment: FITC insulin permeabilization (apical to basolateral) across epithelial monolayer; assay type: cell-based; details: peptide 50 μM, apical side, compared to control (vehicle), FIG. 2
Source text: To assess the potential effects of peptides of the invention on the permeabilization of therapeutic molecules, FITC Insulin (Sigma-Aldrich, Buchs SG, Switzerland) is used as a model for assessing paracellular drug transport (apical to basolateral) across the epithelial monolayer.
Mucilair™ human primary nasal and bronchial epithelial cells (Epithelix sarl, Geneva, Switzerland) and Caco-2 human intestinal epithelial cells are used (Huang et. al., 2013, Toxicol. in Vitro 27: 1151-1156).
Before each experiment, the culture medium is removed from each compartment and the monolayer is washed once with 200 μl of saline (0.9%) and once with warm Hanks' Balanced Salt Solution (HBSS) (37° C.). In the basolateral compartment, 600 μL of pre-warmed HBSS is placed and the cells are returned to the incubator at 37° C. for 30 minutes to equilibrate. After equilibration, the peptides of the invention and the paracellular marker (FITC insulin) are applied to the apical side of an epithelial monolayer. Peptides P4 (SEQ ID NO: 2) and P3 (SEQ ID NO: 4) according to the invention are tested in comparison with a comparative peptide CP4 (SEQ ID NO: 3).
All peptides are used at a final concentration of 50 μM. The vehicle is used as a control (CTRL). The FD solution is added to the apical compartment to make a final volume of 200 μl. […] The fluorescence of FD is measured in black 96-well plates using a fluorescence plate reader (BioTek Synergy Mx plate reader, BioTek Instruments GmbH, Lucerne, Switzerland), using excitation and emission wavelengths of 485 and 520 nm, respectively. Cumulative release (ng) corresponds to the actual amount of drug released cumulatively and corresponds to the amount in the suspension medium at any time plus the amount of the drug lost during each sampling.

[2] = tested on: non-small cell lung cancer (NSCLC); details: NSCLC patients, compared to chemotherapies, before resistance appears; cited from earlier work
[3] = tested on: Mucilair human primary nasal epithelial cells; experiment: Trans-epithelial electrical resistance (TEER), epithelial integrity; assay type: cell-based; details: peptide 100 μM, apical, FIG. 1
Experimental: Trans-epithelial electrical resistance (TEER): After addition of 200 μl of culture medium to the apical compartment of the tissue cultures, resistance is measured across cultures with an EVOMX volt-ohm-meter (World Precision Instruments UK, Stevenage) in triplicate for each time point. The TEER values (Ω) is converted normalized by using the following formula: TEER (Ω cm^2)=(resistance value (Ω)−100 (Ω))×0.33 (cm^2), where 100Ω is the resistance of the membrane and 0.33 cm^2 is the total surface of the epithelium.
To assess the potential effects of peptides of the invention on the epithelial integrity, transepithelial electrical resistance in the presence of a peptide of the invention is measured. Trans-epithelial electrical resistance (TEER) was measured as in Example 2 except that volt-ohm-meter was equipped with STX-2 chopstick electrodes (WPI, Sarasota, Fla., USA). Mucilair™ human primary nasal epithelial cells were used as in Example 2 (from single donor; EP01-Batch number MD069201). The peptide P4 (SEQ ID NO: 2) and comparative peptide […] both at a concentration of 100 μM in Mucilair™ medium and control solution (i.e., 50 μl of saline+50 μl of Mucilair™ medium) were administered to the apical compartment of the tissue cultures at the begging of the experiment (t=0) and the measurements were made after 20, 40, 60 and 80 minutes (t=20 min, t=40 min, t=60 min and t=80 min) of the incubation. All TEER values are expressed as percentage relative to control (the baseline value was 242 Ω*cm^2). All the experiments were performed at least 2 times (test 1 and 2).

Compound	permeabilization of FITC-conjugated insulin (cumulative release) [1]	progression free survival (PFS) [2]	TEER values (percentage relative to control) ([3]; t=20 min)	TEER values (percentage relative to control) ([3]; t=40 min and t=60 min)	TEER values (percentage relative to control) ([3]; t=80 min)
Myr-D-Ala D-Arg D-Arg D-Trp D-Arg [Peptide P3]	increased the permeabilization of insulin FITC to a much larger extend than the control peptide CP4	–	–	–	–
COc1cc2ncnc(Nc3ccc(F)c(Cl)c3)c2cc1OCCCN1CCOCC1 [Gefitinib, N-(3-Chloro-4-fluorophenyl)-7-methoxy-6-(3-morpholinopropoxy) quinazolin-4-amine]	–	7.7-12.9 months	–	–	–
Myr-D-Ala D-Lys D-Arg D-Trp D-Arg [Peptide P4]	increased the permeabilization of insulin FITC to a much larger extend than the control peptide CP4	–	decreased TEER values as compared to control solution and comparative peptide P4 (CP4)	this effect persisted	TEER values increased as compared to values measured at previous time points
Myr-AKRWR (Myristoyl-AKRWR) [CP4, comparative peptide, L-amino acid version of P4, reference compound]	slightly increased the permeabilization	–	–	–	–
